Results: US11311538B2, “Compositions and methods for targeting cancers” (YALE UNIVERSITY, priority 2018, dated 2022)

What was measured:
[1] = tested on: HEK293FT shSDHB / shFH / shCTRL cells; assay: Clonogenic survival assay, DNA damaging agents, SDHB or FH knockdown cells; assay type: cell-based, human; settings: SDHB or FH knockdown cells compared to control shRNA
Experimental: (§1) Western Blot analyses. Western blot analysis of protein levels was conducted by loading 30 μg of whole cell lysate onto a 4-20% polyacrylamide gel. Total protein was transferred to a nitrocellulose membrane. After blocking with 5% milk, membranes were incubated with primary antibodies. Antibodies used were: Rabbit monoclonal anti-Fumarase (D9C5,Cell Signaling Technologies) 1:1000 in 5% BSA, mouse monoclonal anti-SDHB (21A11AE7, Abcam) 1:1000 in % 5 milk, mouse monoclonal anti-Vinculin (SPM227, Abcam) 1:1000 in 5% milk, rabbit polyclonal anti-Histone 3 Lysine 36 trimethyl (9050, Abcam) 1:500 in 5% BSA, anti-Histone 3 Lysine 9 trimethyl (D4W1U, Cell Signaling Technologies) 1:1000 in 5% BSA, mouse monoclonal anti-Beta Actin (60008, Protein Tech) 1:5000 5% milk, rabbit Polyclonal anti-Histone H3 (ab1791, Abcam 1:5000 5% BSA), rabbit Polyclonal anti-PAR (4336-BPC-100, Trevigen) 1:5000 5% BSA, mouse monoclonal anti-GAPDH (60004 Protein Tech) 1:5000 5% milk, mouse monoclonal anti-BRCA2 (ab1, Millipore, 1:1000 5% Milk), mouse monoclonal anti-BRCA1 (D-9, Santa Cruz, 1:200 5% milk), mouse monoclonal anti-RAD51(14B4 Novus bio, 1:1000 5% milk). Patient sample blots were reprobed. […] Doxycycline induced knockdown was monitored by western blot as well as by RFP fluorescence from the internal and dox-inducible reporter on the TRIPZ construct. […]

U2OS DR-GFP cells = assay: U2OS DR-GFP HR assay; assay type: cell-based; settings: for suppression of HR, DR-GFP assay: metabolite added to cell culture medium, 24 h (FIG. 3A)
KDM4A and KDM4B = assay: Western blot of histone trimethylation (KDM4A/B activity) in YUNK1 cells; assay type: cell-based, human; settings: increasing doses, 24 h (FIGS. 7E-7F)
Experimental: Western Blot analyses. Western blot analysis of protein levels was conducted by loading 30 μg of whole cell lysate onto a 4-20% polyacrylamide gel. Total protein was transferred to a nitrocellulose membrane. After blocking with 5% milk, membranes were incubated with primary antibodies. Antibodies used were: Rabbit monoclonal anti-Fumarase (D9C5,Cell Signaling Technologies) 1:1000 in 5% BSA, mouse monoclonal anti-SDHB (21A11AE7, Abcam) 1:1000 in % 5 milk, mouse monoclonal anti-Vinculin (SPM227, Abcam) 1:1000 in 5% milk, rabbit polyclonal anti-Histone 3 Lysine 36 trimethyl (9050, Abcam) 1:500 in 5% BSA, anti-Histone 3 Lysine 9 trimethyl (D4W1U, Cell Signaling Technologies) 1:1000 in 5% BSA, mouse monoclonal anti-Beta Actin (60008, Protein Tech) 1:5000 5% milk, rabbit Polyclonal anti-Histone H3 (ab1791, Abcam 1:5000 5% BSA), rabbit Polyclonal anti-PAR (4336-BPC-100, Trevigen) 1:5000 5% BSA, mouse monoclonal anti-GAPDH (60004 Protein Tech) 1:5000 5% milk, mouse monoclonal anti-BRCA2 (ab1, Millipore, 1:1000 5% Milk), mouse monoclonal anti-BRCA1 (D-9, Santa Cruz, 1:200 5% milk), mouse monoclonal anti-RAD51(14B4 Novus bio, 1:1000 5% milk). Patient sample blots were reprobed. Reprobed blots were stripped with Restore Plus Stripping Buffer (Thermo Fischer) and re-blocked with 5% milk prior to reprobing. Blots were tested to ensure all residual detection reagents were removed. Dual Color Precision Plus Protein standard was used as a molecular weight standard for western blots. Cell Culture. YUNK1 cells were generated in culture from uninvolved cortical renal tissue from a patient undergoing a radical nephrectomy for kidney cancer. […] YUNK1 was immortalized with a lentiviral vector containing SV40 Large T antigen (Addgene plasmid #22298). Lentiviral production was performed using HEK293FT (ATCC) using plasmids pMDLg/pRRE, pRSV-Rev, pCMV-VSG-G (Addgene #12251, 12253, and 8454). YUNK1 cells were maintained in DMEM+10% FBS+1% Pen/Strep. HEK293FT cells (ATCC) were maintained in DMEM+10% FBS+1% Pen/Strep. After lentiviral infections with TRIPZ-shRNA or GIPZ lentiviruses, cells were maintained in DMEM+10% FBS+1% Pen/Strep+2 μg/mL Puromycin. For dox inducible shRNAs, expression was induced with 2 μg/mL doxycycline. Doxycycline induced knockdown was monitored by western blot as well as by RFP fluorescence from the internal and dox-inducible reporter on the TRIPZ construct. U2OS DR-GFP cells were maintained in DMEM+10% FBS+1% Pen/Strep. UOK 262 and UOK 268 HLRCC cells are previously described in Yang, et al., 2010, Cancer Gent. Cytogent. 196:45-55; Yang, et al., 205, Cancer Genet. 205:377-390. They were obtained courtesy of W. M. Linehan and were maintained in DMEM+10% FBS+1% Pen/Strep+1 mM Sodium-Pyruvate. NCCFH1 cells were maintained in DMEM+10% FBS+1% Pen/Strep+1 mM Sodium-Pyruvate. […]

UOK 262 [2] = assay: Neutral comet assay in UOK 262 HLRCC cells; assay type: cell-based, human; settings: for levels of DNA DSBs after exogenous metabolite: FH-deficient UOK 262 cells, 24 h (FIG. 3H)
UOK 268 = assay: Neutral comet assay in UOK 268 HLRCC cells; assay type: cell-based, human; settings: for levels of DNA DSBs after exogenous metabolite: FH-deficient UOK 268 cells, 24 h (FIG. 3H)
UOK 262 [3] = assay: Clonogenic survival assay in cell lines of renal origin; assay type: cell-based, human; settings: FIG. 4C (BMN-673), FIG. 8J (mitomycin C)
HEK293FT and YUNK1 cells = assay: Clonogenic survival assay, PARP inhibitors, knockdown or metabolite-treated cells; assay type: cell-based, human
HEK293FT cells = assay: Immunofluorescence foci assay in HEK293FT cells; assay type: cell-based, human; settings: metabolite added to culture media (FIGS. 3E-3G)
Experimental: as §1

YUNK1 cells = assay: Immunofluorescence foci assay in YUNK1 cells; assay type: cell-based, human
Experimental: as §1

`N.N.[Cl][Pt][Cl]` [cisplatin] was tested, and the “clonogenic survival in response to DNA damaging agent” value [1] was “substantially reduced survival”.
With `COC(=O)CCC(=O)OC` [dimethyl-succinate] the “suppression of HR, DR-GFP assay” value (U2OS DR-GFP cells) was “sufficient to suppress HR in a dose-dependent manner”.
With `O=C(O)/C=C/C(=O)O` [fumarate] the H3K9me3 levels (KDM4A and KDM4B) was “dose-dependent increase”, the H3L36me3 levels (KDM4A and KDM4B) was “dose-dependent increase” and the “levels of DNA DSBs after exogenous metabolite” value (“levels of DNA DSBs” below) (UOK 262 [2]) was “no further effect”. For the same compound, the “levels of DNA DSBs” value (UOK 268) was “no further effect”.
With `CO[C@@]12[C@H](COC(N)=O)C3=C(C(=O)C(C)=C(N)C3=O)N1C[C@@H]1N[C@@H]12` [mitomycin C] the “clonogenic survival in response to DNA damaging agent” value [1] was “substantially reduced survival” and the “sensitivity of UOK 262 relative to FH-proficient cell lines of renal origin, clonogenic survival” value (UOK 262 [3]) was “markedly more sensitive”.
In the case of `CCOC(=O)/C=C/C(=O)O` [monoethyl-fumarate], the “suppression of HR, DR-GFP assay” value (U2OS DR-GFP cells) is reported as “sufficient to suppress HR in a dose-dependent manner”.
`CCOC(=O)CCC(=O)O` [monoethyl-succinate] was tested, and the “suppression of HR, DR-GFP assay” value (U2OS DR-GFP cells) was “sufficient to suppress HR in a dose-dependent manner”.
For `O=C(c1cc(Cc2n[nH]c(=O)c3ccccc23)ccc1F)N1CCN(C(=O)C2CC2)CC1` [olaparib], the “sensitivity to the PARP inhibitor, clonogenic survival” value (HEK293FT and YUNK1 cells; knockdown of SDHB and FH or exogenous dimethyl-fumarate or succinate (FIGS. 4A-4B, 8E-8I)) was “dramatic sensitivity”.
For `O=C(O)CCC(=O)O` [succinate], the H3K9me3 levels (KDM4A and KDM4B) was “dose-dependent increase”, the H3L36me3 levels (KDM4A and KDM4B) was “dose-dependent increase” and the p53BP1 foci (HEK293FT cells) was “Increases”. The γH2AX foci (HEK293FT cells) was “Increases”, the “induction of sensitivity to PARP inhibitors olaparib and BMN-673 by exogenous metabolite” value (HEK293FT and YUNK1 cells; metabolite added to culture media (2 mM succinate; 30 or 60 μM dimethyl-fumarate)) was “induced dramatic sensitivity” and the “levels of DNA DSBs” value (UOK 262 [2]) was “no further effect”. The γH2AX foci (YUNK1 cells; 24 h (FIGS. 6I-6J)) was “Increases”, the p53BP1 foci (YUNK1 cells; 24 h (FIGS. 6K-6L)) was “Increases” and the “levels of DNA DSBs” value (UOK 268) was “no further effect”. The “suppression of HR, DR-GFP assay” value (U2OS DR-GFP cells) was “sufficient to suppress HR in a dose-dependent manner”.
In the case of `COC(=O)CCC(=O)C(=O)OC` [αKG, dimethyl-α-ketoglutarate], the “rescue of elevated DSB phenotype (comet assay)” value (UOK 262 [2]; FH deficient UOK 262 cells, 2 mM dimethyl-α-ketoglutarate (FIG. 3J)) is reported as “rescued the phenotype”, the “rescue of elevated DSB phenotype (comet assay)” value (UOK 268; FH deficient UOK 268 cells, 2 mM dimethyl-α-ketoglutarate (FIG. 3J)) is reported as “rescued the phenotype” and the “rescue of HR defect induced by succinate or fumarate, DR-GFP assay” value (U2OS DR-GFP cells; co-treatment with dimethyl-succinate or dimethyl-fumarate (FIG. 3L)) is reported as “rescued”.
